Experimental data: ChEMBL document CHEMBL1139788, “Potent, nonsteroidal selective androgen receptor modulators (SARMs) based on 8H-[1,4]oxazino[2,3-f]quinolin-8-ones” (Bioorg Med Chem Lett, 2007)
pEC50, pIC50: −log10 of the molar value. The source made the active and inactive calls. No cut-off for these calls is given here.

Key:
Androgen receptor [1] = target: T1, Androgen receptor (Homo sapiens, UniProt P10275)
T1 sequence (P10275 whole entry): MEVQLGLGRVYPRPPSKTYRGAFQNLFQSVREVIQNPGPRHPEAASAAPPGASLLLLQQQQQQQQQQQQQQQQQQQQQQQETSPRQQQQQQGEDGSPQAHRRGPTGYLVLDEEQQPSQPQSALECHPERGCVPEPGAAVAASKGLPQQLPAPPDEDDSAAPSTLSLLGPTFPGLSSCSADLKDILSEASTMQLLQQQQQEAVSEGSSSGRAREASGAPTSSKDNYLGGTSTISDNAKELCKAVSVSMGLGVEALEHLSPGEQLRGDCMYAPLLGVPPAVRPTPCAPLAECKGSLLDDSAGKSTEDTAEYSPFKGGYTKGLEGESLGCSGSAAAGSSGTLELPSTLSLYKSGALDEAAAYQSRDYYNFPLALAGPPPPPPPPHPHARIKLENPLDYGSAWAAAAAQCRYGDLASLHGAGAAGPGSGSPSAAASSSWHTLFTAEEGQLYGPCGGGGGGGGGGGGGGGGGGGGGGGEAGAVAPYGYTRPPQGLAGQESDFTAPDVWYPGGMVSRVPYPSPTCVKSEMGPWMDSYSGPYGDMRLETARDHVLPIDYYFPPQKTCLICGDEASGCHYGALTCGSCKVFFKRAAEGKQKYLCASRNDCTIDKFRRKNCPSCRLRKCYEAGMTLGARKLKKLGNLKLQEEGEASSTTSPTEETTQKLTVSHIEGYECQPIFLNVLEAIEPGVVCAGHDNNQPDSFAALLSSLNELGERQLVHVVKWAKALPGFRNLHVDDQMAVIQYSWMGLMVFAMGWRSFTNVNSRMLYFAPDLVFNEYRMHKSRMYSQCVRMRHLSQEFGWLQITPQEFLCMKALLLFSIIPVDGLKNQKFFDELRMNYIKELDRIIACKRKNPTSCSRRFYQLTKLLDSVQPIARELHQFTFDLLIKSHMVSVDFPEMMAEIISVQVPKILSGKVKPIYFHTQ
Description: Agonist activity at human androgen receptor expressed in CV1 cells by transcriptional activation assay

Androgen receptor [2] = target: T1, Androgen receptor; remark: listed apart in the source
Description: Antagonist activity at human androgen receptor expressed in CV1 cells by transcriptional activation assay

[3] = target: T2, Progesterone receptor (Homo sapiens) (UniProt P06401); assay: Antagonist activity at progesterone receptor by transactivation assay; assay type: functional
T2 sequence (whole entry): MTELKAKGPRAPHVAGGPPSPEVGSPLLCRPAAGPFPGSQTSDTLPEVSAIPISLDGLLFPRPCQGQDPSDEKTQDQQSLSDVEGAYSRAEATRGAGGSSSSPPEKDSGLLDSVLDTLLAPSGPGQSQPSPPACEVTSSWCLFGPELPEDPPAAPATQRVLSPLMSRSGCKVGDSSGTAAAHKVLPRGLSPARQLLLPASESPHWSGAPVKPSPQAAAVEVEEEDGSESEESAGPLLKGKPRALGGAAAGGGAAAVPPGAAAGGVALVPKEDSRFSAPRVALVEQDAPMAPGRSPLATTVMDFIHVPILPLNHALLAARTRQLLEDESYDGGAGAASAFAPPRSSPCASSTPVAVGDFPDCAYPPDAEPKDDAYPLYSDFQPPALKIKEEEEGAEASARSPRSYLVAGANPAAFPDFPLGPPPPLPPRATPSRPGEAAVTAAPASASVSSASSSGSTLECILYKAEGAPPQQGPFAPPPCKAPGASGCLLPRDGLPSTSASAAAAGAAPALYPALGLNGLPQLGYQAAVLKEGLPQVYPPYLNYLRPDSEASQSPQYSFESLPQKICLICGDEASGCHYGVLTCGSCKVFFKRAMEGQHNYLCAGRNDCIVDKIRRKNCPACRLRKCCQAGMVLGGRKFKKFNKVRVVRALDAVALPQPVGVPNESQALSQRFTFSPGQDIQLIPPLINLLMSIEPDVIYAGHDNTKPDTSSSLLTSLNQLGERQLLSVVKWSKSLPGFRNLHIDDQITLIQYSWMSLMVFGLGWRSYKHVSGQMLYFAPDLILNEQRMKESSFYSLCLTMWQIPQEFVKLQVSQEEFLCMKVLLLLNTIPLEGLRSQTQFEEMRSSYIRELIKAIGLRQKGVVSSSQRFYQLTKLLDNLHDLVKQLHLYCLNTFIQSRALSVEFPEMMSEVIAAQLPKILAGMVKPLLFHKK

[4] = target: T2, Progesterone receptor (Homo sapiens); assay: Agonist activity at progesterone receptor by transactivation assay; assay type: functional
[5] = target: T3, Glucocorticoid receptor (Homo sapiens) (UniProt P04150); assay: Agonist activity at glucocorticoid receptor by transactivation assay; assay type: functional
T3 sequence (whole entry): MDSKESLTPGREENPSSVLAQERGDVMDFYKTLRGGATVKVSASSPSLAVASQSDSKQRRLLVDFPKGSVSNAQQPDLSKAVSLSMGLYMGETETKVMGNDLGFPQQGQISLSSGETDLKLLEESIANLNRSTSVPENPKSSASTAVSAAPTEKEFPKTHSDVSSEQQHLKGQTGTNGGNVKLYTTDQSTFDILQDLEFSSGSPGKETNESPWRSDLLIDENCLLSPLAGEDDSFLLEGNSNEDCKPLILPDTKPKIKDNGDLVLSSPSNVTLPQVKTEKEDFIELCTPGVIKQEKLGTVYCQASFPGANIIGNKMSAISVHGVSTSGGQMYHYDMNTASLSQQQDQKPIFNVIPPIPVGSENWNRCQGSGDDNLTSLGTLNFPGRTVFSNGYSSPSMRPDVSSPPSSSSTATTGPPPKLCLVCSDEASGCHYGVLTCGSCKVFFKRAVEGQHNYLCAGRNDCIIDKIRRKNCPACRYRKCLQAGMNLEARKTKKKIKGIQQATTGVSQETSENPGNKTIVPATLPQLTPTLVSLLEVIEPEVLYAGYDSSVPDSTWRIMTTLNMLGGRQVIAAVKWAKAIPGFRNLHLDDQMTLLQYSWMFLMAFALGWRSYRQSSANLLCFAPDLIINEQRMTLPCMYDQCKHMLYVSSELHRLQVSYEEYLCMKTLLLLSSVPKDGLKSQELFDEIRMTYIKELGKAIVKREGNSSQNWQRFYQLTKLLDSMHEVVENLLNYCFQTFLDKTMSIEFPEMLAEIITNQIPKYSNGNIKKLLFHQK

[6] = target: T4, Mineralocorticoid receptor (Homo sapiens) (UniProt P08235); assay: Agonist activity at mineralocorticoid receptor by transactivation assay; assay type: functional
T4 sequence (whole entry): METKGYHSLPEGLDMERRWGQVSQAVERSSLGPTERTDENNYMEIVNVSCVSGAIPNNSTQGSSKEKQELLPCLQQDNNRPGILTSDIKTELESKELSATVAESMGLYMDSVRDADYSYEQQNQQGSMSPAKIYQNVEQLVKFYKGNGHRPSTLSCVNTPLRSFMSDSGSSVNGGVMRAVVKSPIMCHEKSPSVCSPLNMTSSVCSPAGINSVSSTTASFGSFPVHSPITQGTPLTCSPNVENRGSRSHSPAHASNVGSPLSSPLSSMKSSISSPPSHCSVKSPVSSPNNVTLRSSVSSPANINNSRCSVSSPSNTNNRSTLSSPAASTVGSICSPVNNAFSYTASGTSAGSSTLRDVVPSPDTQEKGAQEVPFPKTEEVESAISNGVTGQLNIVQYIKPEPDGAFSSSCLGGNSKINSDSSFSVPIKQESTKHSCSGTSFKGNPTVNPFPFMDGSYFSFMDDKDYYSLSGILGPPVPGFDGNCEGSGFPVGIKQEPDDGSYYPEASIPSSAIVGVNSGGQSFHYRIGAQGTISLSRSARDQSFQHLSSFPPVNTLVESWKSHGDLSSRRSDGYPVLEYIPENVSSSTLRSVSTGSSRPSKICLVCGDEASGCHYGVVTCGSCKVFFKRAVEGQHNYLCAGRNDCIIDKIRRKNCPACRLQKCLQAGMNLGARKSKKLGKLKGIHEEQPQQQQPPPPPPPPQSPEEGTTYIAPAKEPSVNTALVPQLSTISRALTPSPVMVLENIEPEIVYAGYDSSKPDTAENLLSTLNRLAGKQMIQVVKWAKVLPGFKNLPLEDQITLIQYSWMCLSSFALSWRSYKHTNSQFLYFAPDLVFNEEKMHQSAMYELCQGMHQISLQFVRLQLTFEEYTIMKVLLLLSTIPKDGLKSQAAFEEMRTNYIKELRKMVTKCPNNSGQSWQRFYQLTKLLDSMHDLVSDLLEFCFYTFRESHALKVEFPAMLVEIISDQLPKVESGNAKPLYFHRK

[7] = target: T4, Mineralocorticoid receptor (Homo sapiens); assay: Antagonist activity at mineralocorticoid receptor by transactivation assay; assay type: functional
[8] = target: T3, Glucocorticoid receptor (Homo sapiens); assay: (§1) Antagonist activity at glucocorticoid receptor by transactivation assay; assay type: functional
Glucocorticoid receptor = target: T5, Glucocorticoid receptor (Homo sapiens, UniProt P04150); assay: as §1; assay type: functional
T5 sequence (P04150 whole entry): T3 sequence (whole entry)

Rattus norvegicus [9] = assay: Reduced activity on ventral prostate weight in 2-week castrated mature rat model at 100 mg/kg; assay type: functional, organism-based; set-up: dose 100 mg/kg; settings: Prostate gland
Rattus norvegicus [10] = assay: Effect on levator ani muscle weight maintenance in 2-week castrated mature rat model at 10 mg/kg; assay type: functional, organism-based; set-up: dose 10 mg/kg

SMILES | pEC50 (Androgen receptor [1]) | pIC50 (Androgen receptor [2]) | also measured
CCCN1c2ccc3[nH]c(=O)cc(C(F)(F)F)c3c2OC[C@H]1C | 6.39 |  | 
CCN1c2ccc3[nH]c(=O)cc(C(F)(F)F)c3c2OC[C@H]1C | 6.38 |  | 
C=CCN1c2ccc3[nH]c(=O)cc(C(F)(F)F)c3c2OC[C@H]1CC | 7.29 | < 5.00 | 
CC(C)C[C@@H]1COc2c(ccc3[nH]c(=O)cc(C(F)(F)F)c23)N1CC(F)(F)F | 7.01 |  | 
CC[C@@H]1COc2c(ccc3[nH]c(=O)cc(C(F)(F)F)c23)N1 | < 5.00 | 7.08 | Efficacy [3]: 42%; Activity [4]: inactive; Activity [5]: inactive; Activity [6]: inactive; Activity [7]: inactive
CC(C)[C@@H]1COc2c(ccc3[nH]c(=O)cc(C(F)(F)F)c23)N1C | 6.56 |  | 
O=c1cc(C(F)(F)F)c2c3c(ccc2[nH]1)NCCO3 | < 5.00 | 5.82 | 
O=c1cc(C(F)(F)F)c2c3c(ccc2[nH]1)N[C@H](c1ccccc1)CO3 | < 5.00 | 5.83 | 
C=CCN1c2ccc3[nH]c(=O)cc(C(F)(F)F)c3c2OC[C@H]1C(C)C |  | < 5.00 | 
CC(C)[C@@H]1COc2c(ccc3[nH]c(=O)cc(C(F)(F)F)c23)N1CC(F)(F)F | 7.70 | < 5.00 | 
CCN1c2ccc3[nH]c(=O)cc(C(F)(F)F)c3c2OC[C@H]1C(C)C |  | < 5.00 | 
O=c1cc(C(F)(F)F)c2c3c(ccc2[nH]1)N(CC(F)(F)F)[C@H](Cc1ccccc1)CO3 | 7.37 | < 5.00 | 
CC[C@@H]1COc2c(ccc3[nH]c(=O)cc(C(F)(F)F)c23)N1CC |  | < 5.00 | 
CCCN1c2ccc3[nH]c(=O)cc(C(F)(F)F)c3c2OC[C@H]1CC | 6.40 | < 5.00 | 
C[C@@H]1COc2c(ccc3[nH]c(=O)cc(C(F)(F)F)c23)N1CC(F)(F)F | 8.27 | < 5.00 | Efficacy [3]: 40%; Activity [4]: inactive; Activity [5]: inactive; Activity [6]: inactive; Efficacy [8]: 53%; pIC50 (Glucocorticoid receptor): 5.49; Activity [7]: inactive
O=c1cc(C(F)(F)F)c2c3c(ccc2[nH]1)N(CC(F)(F)F)CCO3 | 6.72 |  | 
CC[C@@H]1COc2c(ccc3[nH]c(=O)cc(C(F)(F)F)c23)N1CC(C)C | 6.64 | < 5.00 | 
C[C@@H]1COc2c(ccc3[nH]c(=O)cc(C(F)(F)F)c23)N1C | < 5.00 |  | 
CCC[C@@H]1COc2c(ccc3[nH]c(=O)cc(C(F)(F)F)c23)N1 | < 5.00 | 6.95 | 
O=c1cc(C(F)(F)F)c2c3c(ccc2[nH]1)N(CC1CC1)[C@@H](c1ccccc1)CO3 | 7.74 | < 5.00 | 
CC[C@@H]1COc2c(ccc3[nH]c(=O)cc(C(F)(F)F)c23)N1CC(C)(C)O | 6.52 | < 5.00 | 
CC[C@@H]1COc2c(ccc3[nH]c(=O)cc(C(F)(F)F)c23)N1C | < 5.00 |  | 
CC[C@@H]1COc2c(ccc3[nH]c(=O)cc(C(F)(F)F)c23)N1CC(F)(F)F | 9.00 | < 5.00 | Efficacy [3]: 94%; Activity (Rattus norvegicus [9]): Active; Activity [4]: inactive; Activity [5]: inactive; Activity [6]: inactive; Efficacy [8]: 98%; Activity [7]: inactive; Activity (Rattus norvegicus [10]): Active
O=c1cc(C(F)(F)F)c2c3c(ccc2[nH]1)N(CC1CC1)C(c1ccccc1)CO3 (stereo not given) | 8.46 | < 5.00 | 
O=c1cc(C(F)(F)F)c2c3c(ccc2[nH]1)N(CC1CC1)[C@H](c1ccccc1)CO3 | < 5.00 | 7.35 | 
